# In patent publication US20020076693A1, “Novel cell surface receptor for HIV retroviruses, therapeutic and diagnostic uses” (priority 1997, published 2002):
# pEC50, pIC50: −log10 of the molar value.
# Key:
# [1] = test system: V3 loop-BPs (nucleolin, PHAP II, PHAP I); test: BIAcore biosensor binding to immobilized V3 loop-BPs; parameters: species or system human
# [2] = test system: HIV-1 AZT resistant, Saquinavir resistant, Nevirapine resistant; test: Entry of HIV-1 isolates resistant to antiviral drugs into HeLa cells (β-galactosidase); assay type: cell-based; details: heparin 5 mg/ml
# Experimental: HIV entry and replication, results in the activation of the HIV LTR, leading to the expression of the lacZ gene. Therefore, at 24 and 48 hours post-infection, the β-galactosidase activity could be measured in cell extracts directly. Consequently, this latter technique could be used to monitor HIV entry into cells. The HIV dose used corresponded to the amount of virus containing 20-40 ng/ml of p24.
# In these experiments, the background values of the β-galactosidase activity were assesed by the samples incubated with the a-CD4 mAb. Furthermore, the effect of heparin (5 mg/ml) was investigated.
# HIV-1 Lai [3] = test: Inhibition of HIV-1 Lai infection of CEM cells (p24 production); assay type: cell-based
# Experimental: Infection of CEM cells with the HIV-1 Lai isolate was carried out as described previously (Callebaut et al., 1996). For the assay of the inhibitory effect of rabbit antisera or purified antibodies, CEM cells were first incubated (15-30 min, at room temperature) in the presence of different concentrations of each antibody preparation before infection using 0.2 synchronous dose of HIV-1 Lai as described before (Laurent-Crawford and Hovanessian, 1993). HIV production was estimated at different days post-infection (p.i.) by monitoring the HIV-1 major core protein p24 in the culture supernatant (Callebaut et al., 1996). The concentration of p24 was measured by p24 Core Profile ELISA (Du Pont). For a single cycle of HIV, AZT ([…]) was added at 8 hr post-infection to inhibit multiple cycles of virus infection; HIV production was monitored at 4 days post-infection (Laurent-Crawford and Hovanessian, 1993).
# P40/PHAPII = P40/PHAPII (Homo sapiens, UniProt Q01105); test: Saturation of binding sites of P40/PHAPII
# CD4 = CD4 (Homo sapiens, UniProt P01730); test: BIAcore biosensor binding to soluble CD4; details: binding protein soluble recombinant CD4, BIAcore
# HIV-1 Lai [4] = test: Binding of HIV particles to CEM cells (cell-associated p24); assay type: cell-based; details: 37° C., 1 hour; TASP 10 mM, mAb OKT4A 10 μg/ml, mAb anti-CD4 5 μg/ml, rabbit antibodies 100 μg/ml
# Experimental: B. The binding of HIV particles to CEM cells. […] The binding of HIV particles was estimated as described in “Materials and Methods”. The ordinate gives the concentration of p24 associated with the cells, i.e. particles bound on the cell surface as well as particles (or cores) entered into cells. Each value represents the mean of two identical samples. Similar results were obtained in two other indepenent experiments.
# CEM cells (5×10^6) were first preincubated (15 min, 37° C.) in the absence (Control) or presence of mAb anti-CD4 CB-T4 (5 μg/ml; histogram a-CD4), rabbit peptide purified antibodies against nucleolin, PHAP II and PHAP I at 100 μg/ml, or combination of antibodies as shown (at the same concentrations as when used alone) before the addition of HIV-1 Lai (material corresponding to 5 ng of p24), and further incubation at 37° C. for 1 hr. The cells were then washed and cell extracts were prepared to estimate the amount of HIV binding to cells (HIV bound on the surface+HIV entered into cells). The amount of virus particles was estimated by measuring the concentration of p24. The experimental conditions were as described previously (Krust et al., 1993; Callebaut et al., 1997b).
# After incubation at 37° C. for 1 hour with gentle shaking, cells were diluted 10 fold in the culture medium and pelleted by centrifugation. […]
# CEM cells = test: FACS binding of labeled TASP constructs to the cell-surface ligand; parameters: species or system human; details: biotin-labeled constructs, dose for 50% labeling, read-out: Affinity to bind TASP-ligand (EC50), 50% effective dose
# Text: The cells were then washed twice with FACS buffer and fixed in 1% formaldehyde in FACS buffer. […] The fluorescence intensity was monitored by FACS analysis using Lysis II Software in FIGS. 3/4 and Tables 1/2, or Cell Quest™ Software (Beckton Dickinson and Apple Computer) in FIG. 5 +L.
# CD4^+ CEM cells = test: Binding of 125I-labeled gp120 to CEM cells; parameters: species or system human
# Experimental: A. The binding of ^125I-labeled gp120 to CEM cells. […] The cells were then washed as described in “Materials and Methods” and processed for analysis of the bound gp120.
# Recombinant gp120 (Neosystem, Strasbourg, France) was radioiodinated with the Bolton-Hunter reagent (New England Nuclear-Du Pont, Boston, Mass.) according to the technique described by the manufacturer. To study the binding of gp120 to the CD4 receptor, CEM cells (5×10^6) which express high levels of CD4 were incubated in the culture medium with ^125I-labeled gp120 (50 ng; 10 Ci/mg) at 37° C. for 1 hour. Cells were then washed twice in PBS (5 ml) and cytoplasmic extracts were prepared by disruption of cell pellets in buffer E ([…]). Aliquots ([…]; corresponding to material from 10^6 cells) were diluted in two-fold concentrated electrophoresis buffer and were analyzed by SDS/PAGE. […] The ^125I-labeled gp120 band was also quantitated in a Phosphorimager (Molecular Dynamics, Sunnyvale, Calif.).
# [5] = binding protein(s) V3 loop-BPs, BIAcore
# P40/PHAPII, sequence (Q01105 1-277 isoform Q01105-2): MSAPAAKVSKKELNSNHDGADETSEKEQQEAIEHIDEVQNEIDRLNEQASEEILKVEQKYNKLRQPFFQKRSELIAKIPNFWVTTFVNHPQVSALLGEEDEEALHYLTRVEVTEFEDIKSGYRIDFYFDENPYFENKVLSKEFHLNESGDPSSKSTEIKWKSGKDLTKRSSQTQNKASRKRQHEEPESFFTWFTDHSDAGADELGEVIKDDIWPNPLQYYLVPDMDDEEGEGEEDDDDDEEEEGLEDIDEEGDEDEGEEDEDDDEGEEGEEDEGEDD
substance,measurement,setting,value
5[Kψ(CH2N)PR]-TASP,Ka (equilibrium affinity constant),[1]; [5],9.61e+09 M⁻¹
same,ka (association rate constant),[1]; [5],37.50 × 10^5 M^−1S^−1
same,kd (dissociation rate constant),[1]; [5],0.39 × 10^−3 S^−1
same,equilibrium affinity constant Ka,[1]; binding to the V3 loop-BPs,9.6e+09 M⁻¹
same,effect on entry of drug-resistant HIV-1 isolates,[2],Inhibits Entry
same,inhibition of virus production,HIV-1 Lai [3]; 5 mM added one hour before or together with the virus,more than 90%
same,inhibitory effect when added at 8 hours p.i.,HIV-1 Lai [3]; CEM cells,almost no effect
same,HIV entry monitored by intracellular concentration of p24,"HIV-1 Lai [3]; CEM cells, 1 hour incubation with virus, 5-10 μM",inhibited almost completely
same,combined action with AZT against an HIV infection,"HIV-1 Lai [3]; CEM cells, HIV-1 Lai, p24 at 4 days p.i.",synergistic action
same,pIC50,"HIV-1 Lai [3]; CEM cells, construct added 15 min before HIV-1, p24 at 4 days p.i., read-out: Inhibition of HIV infection (IC50), 50% dose",6.30
same,inhibition of HIV-1 Lai infection in CEM cells,"HIV-1 Lai [3]; TASP 5 μM, p24 at 5 days p.i.",more than 95%
same,inhibition of virus infection,"HIV-1 Lai [3]; TASP 10 μM, mAb OKT4A 10 mg/ml",complete inhibition
same,higher activity compared to non-reduced counterpart 5[KPR]-TASP,HIV-1 Lai [3]; both inhibition of HIV infection and affinity to bind the cell-surface ligand,≥ 10 fold
same,concentration for 100% saturation of the binding sites,P40/PHAPII,4 µM
same,ka (association rate constant),CD4; listed as 5(KΨ(CH2N)PR)TASP,nb^b
same,ka (association rate constant),CD4; listed as 5[KΨ(CH2N)PR]-TASP,No binding
same,inhibition of binding of HIV particles to CEM cells,HIV-1 Lai [4],78%
same,pEC50,CEM cells,6.82
same,binding of 125I-labeled gp120 to CEM cells,CD4^+ CEM cells; 20 mM of TASP,not affected
same,binding of 125I-labeled gp120 to CEM cells,"CD4^+ CEM cells; higher concentrations of TASP (40, 80 μM)",slight inhibition
